# Results: US20250250300A1, “COMPOSITIONS AND METHODS FOR TREATING PSEUDOMYXOMA PERITONEI” (UNIVERSITY OF SOUTH CAROLINA, priority 2024, published 2025)
# *1 amine or outer side, *2 acyl side, *3 side chain or, on linkers, in order; H or OH if unused. Where a SMILES comes first, the peptide text is derived from it. Bridges are numbered along the chain shown (N, C = ends). [ ]: non-standard residue; d: D form. The star is where a group is joined. X2 = NC(=O)C[C@@H](O)[C@@H](N[*:1])C(=O)[*:2]; d(aThr) = C[C@@H](O)[C@@H](N)C(=O)O; NMeF = CN[C@@H](Cc1ccccc1)C(=O)O; X1 = CC[C@@H](C)CCCCCCCCCCC(=O)*; dNMeN = CN[C@H](CC(N)=O)C(=O)O
# Assays:
# [1] = reported; cited from earlier work
# [2] = test system: FHC cells; assay: seahorse mitochondrial stress assay, FHC; assay type: cell-based, human; conditions: for mitochondrial respiration (normalized OCR and ECAR): normalized per 1,000 cells
# Method: (§1) FIG. 3C depicts seahorse mitochondrial stress assay of 2 and 5-FU (positive control) toward FHC cell lines, from which the normalized oxygen consumption rate (OCR) and normalized extracellular acidification rate (ECAR) were measured. The OCR was measured at baseline and in response to sequential injections of oligomycin (O), carbonyl cyanide-p-trifluoromethoxyphenyl-hydrazon (FCCP), and rotenone with antimycin (RA).
# (§2) As tumor cells requires larger energy supply that relies on mitochondrial respiration and glycolysis, we sought to explore the effect of myxomapeptins on PMP cell energy metabolism using seahorse mitochondrial stress assay. The normalized oxygen consumption rate (OCR; proportional to mitochondrial respiration) and normalized extracellular acidification rate (ECAR; proportional to glycolysis) were measured for PMP501-1 cells and FHC in the presence of 2, 5-fluorouracil (5-FU) or vehicle.
# (§3) Next, the modulatory effect of 3 and 4 on PMP, HT-29 and FHC cells was evaluated. […] Subsequently, the effect of 3 and 4 on the mitochondrial respiration of ABX023-1 cells was measure in the seahorse mitochondrial stress assay.
# [3] = test system: PMP501-1 cells; assay: seahorse mitochondrial stress assay, PMP501-1; assay type: cell-based, human; conditions: PMP501-1, normalized per 1,000 cells
# Method: as §1, with “3B” for “3C”, “PMP501-1cell” for “FHC cell”
# as §2
# [4] = test system: human colorectal adenocarcinoma cells (HT-29); assay: cell viability assay (crystal violet), HT-29; assay type: cell-based; conditions: for effect on proliferation: 33.3 μM (for 3)
# Method: (§4) To evaluate whether myxomapeptin is the major contributor to the PMP inhibition, 2 were assayed against two PMP cell lines (PMP501-1 and ABX023-1), human colorectal adenocarcinoma cells (HT-29), and human fetal intestinal epithelial cells (FHC) using crystal violet cell viability assay.
# as §3
# [5] = test system: ABX023-1 cells; assay: crystal violet cell viability assay, ABX023-1; assay type: cell-based, human; conditions: for stimulation of proliferation: 33.3 μM (for 3)
# Method: as §4, §3
# [6] = test system: ABX023-1 cells; assay: seahorse mitochondrial stress assay, ABX023-1; assay type: cell-based, human; conditions: 15 μM (for 3), after FCCP supplementation
# Method: as §1, with “4C” for “3C”, “3” for “2”, “4” for “5-FU (positive control)”, “ABX023-1” for “FHC”
# as §3
# [7] = test system: human fetal intestinal epithelial cells (FHC); assay: crystal violet cell viability assay, FHC; assay type: cell-based; conditions: for effect on proliferation: 33.3 μM (for 3)
# Method: as §4, §3
# [8] = test system: PMP501-1 cells; assay: cell viability assay (crystal violet), PMP501-1; assay type: cell-based, human; conditions: for stimulation of proliferation: 33.3 μM (for 3)
# Method: as §4, §3
# [9] = test system: FHC cells; assay: cell uptake, LCMS of cell lysate, FHC; assay type: cell-based, human; conditions: compound fed, 5 days of incubation
# From the text: (§5) Due to the inability of entering target cells passively, most cyclic lipopeptides are reported to perform biological functions by disrupting cell wall biosynthesis or the integrity of cell membranes. Given that myxomapeptins influence mitochondrial respiration and glycolysis, which occur in the cytoplasm, without wishing to be bound by theory, it was hypothesized that myxomapeptins are likely able to enter PMP cells. To this end, 2 was fed into the cultures of PMP501-1, ABX023-1, HT-29 and FHC cells with normalized cell density. After 5 days of incubation and a thorough wash, the cells were lysed and extracted by butanol for LCMS analysis. By calculating the ratio of 2 in cell lysis versus control extracts, 18.9% and 26.7% of 2 were found in the lysates of PMP501-1 and ABX023-1, whereas only 6.1% and 4.1% were detected from the lysates of HT-29 and FHC, respectively (FIG. 3A).
# [10] = antimicrobial activity test; assay type: cell-based; conditions: 64 μg/mL
# Method: Next, the absolute configuration of amino acid residues in 1 and 2 were determined by advanced Marfey's analysis after acid hydrolysis. After derivatization with (L)-and (D)-1-fluoro-2-4-dinitrophenyl-5-L-alanine amide (FDAA), the acid hydrolysate of 1 and 2 together with amino acid standards were analyzed by LCMS. […] Besides, the analysis allowed assignment of non-canonical amino acids as (2S,3R)-MeDap, (2R,4S)—Y—OH-Gln and (2S,3R)-B-Me-Glu in the structures of 1 and 2. Thus, the structures inclusive of absolute configuration of 1 and 2 are unambiguously assigned (FIG. 2C), and were named myxomapeptins A and B based on the source of the producing strain. Myxomapeptins are a new class of depsi cyclic lipopeptide consisting of eight amino acid residues that features N-methylation, C-methylation and hydroxylation, and a-proton epimerization.
# [11] = test system: ABX023-1 cells; assay: cell uptake, LCMS of cell lysate, ABX023-1; assay type: cell-based, human; conditions: for ratio of compound in cell lysis versus control extracts: ABX023-1, compound fed, 5 days of incubation
# From the text: as §5
# (§6) Next, to study the percentage of myxomapeptins contributed by the intracellular PMP498-3 in light of the presence of PMP498-3 bacteria inside the PMP cells, the bacteria was co-cultured with the cell lines tested above.
# [12] = test system: HT-29 cells; assay: cell uptake, LCMS of cell lysate, HT-29; assay type: cell-based, human; conditions: HT-29, compound fed, 5 days of incubation
# From the text: as §5
# [13] = test system: PMP501-1 cells; assay: cell uptake, LCMS of cell lysate, PMP501-1; assay type: cell-based, human; conditions: for ratio of compound in cell lysis versus control extracts: PMP501-1, compound fed, 5 days of incubation
# From the text: as §5, §6
# [14] = test system: HT-29 cells; assay: seahorse mitochondrial stress assay, HT-29; assay type: cell-based, human
compound,measurement,setting,value
neopeptin,antibacterial and antifungal activities,[1],reported to possess antibacterial and antifungal activities
"O=c1[nH]cc(F)c(=O)[nH]1 [Compound 5-FU, 5-fluorouracil]",mitochondrial respiration (normalized OCR and ECAR),[2],unselectively inhibited
same,mitochondrial respiration (normalized OCR and ECAR),[3],unselectively inhibited
"N[C@@H](Cc1ccc(O)cc1)C(=O)O [Compound 4, L-tyrosine]",effect on proliferation,[4],no discernible effect
same,stimulation of proliferation,[5],no discernible effect
same,increase of maximum respiratory capacity,[6],do not have any effect
same,effect on proliferation,[7],no discernible effect
same,stimulation of proliferation,[8],no discernible effect
"CC[C@@H](C)CCCCCCCCCCC(=O)N[C@H]1C(=O)N[C@@H](CC(=O)O)C(=O)N[C@H](CO)C(=O)N[C@@H](CO)C(=O)N(C)[C@H](CC(N)=O)C(=O)N(C)[C@@H](Cc2ccccc2)C(=O)N[C@H]([C@H](O)CC(N)=O)C(=O)N[C@H](CCC(=O)O)C(=O)O[C@@H]1C [Lipopeptin A, lipopeptin A] (X1-[d(aThr)]D[dS]S[dNMeN][NMeF][X2][dE]; ester 1-C)",antibacterial and antifungal activities,[1],reported to possess antibacterial and antifungal activities
myxomapeptin B [Compound 2],mitochondrial respiration (normalized OCR and ECAR),[2],not observed
same,IC50,[4],> 100 µM
same,IC50,[5],33.7 µM
same,ratio of compound in cell lysis versus control extracts,[9],4.1%
same,antimicrobial activity,[10],no antimicrobial activity
same,IC50,[7],> 100 µM
same,ratio of compound in cell lysis versus control extracts,[11],26.7%
same,percentage of 2 found in cell lysate,[11]; ABX023-1 co-cultured with PMP498-3 bacteria,30.2%
same,ratio of compound in cell lysis versus control extracts,[12],6.1%
same,mitochondrial respiration (normalized OCR and ECAR),[3],strongly inhibits
same,ratio of compound in cell lysis versus control extracts,[13],18.9%
same,percentage of 2 found in cell lysate,[13]; PMP501-1 co-cultured with PMP498-3 bacteria,22.5%
same,IC50,[8],23 µM
myxomapeptin A [Compound 1],antimicrobial activity,[10],no antimicrobial activity
"O=C(O)/C=C/c1ccc(O)cc1 [Compound 3, p-coumaric acid]",stimulatory effect on oxygen consumption,[2],no substantial stimulatory effect
same,stimulatory effect on oxygen consumption,[14],no substantial stimulatory effect
same,effect on proliferation,[4],no effect
same,stimulation of proliferation,[5],~20%
same,increase of maximum respiratory capacity,[6],25%
same,effect on proliferation,[7],no effect
same,stimulation of proliferation,[8],~20%
CCCCCCCCCC(=O)N[C@@H](Cc1c[nH]c2ccccc12)C(=O)N[C@H](CC(N)=O)C(=O)N[C@@H](CC(=O)O)C(=O)N[C@@H]1C(=O)NCC(=O)N[C@@H](CCCN)C(=O)N[C@@H](CC(=O)O)C(=O)N[C@H](C)C(=O)N[C@@H](CC(=O)O)C(=O)NCC(=O)N[C@H](CO)C(=O)N[C@@H]([C@H](C)CC(=O)O)C(=O)N[C@@H](CC(=O)c2ccccc2N)C(=O)O[C@@H]1C [daptomycin],ratio of compound in cell lysis versus control extracts,[9],cannot be detected
same,ratio of compound in cell lysis versus control extracts,[11],cannot be detected
same,ratio of compound in cell lysis versus control extracts,[12],cannot be detected
same,ratio of compound in cell lysis versus control extracts,[13],cannot be detected
